In patent publication US7452887B2, “Quinoline- and isoquinoline-based compounds exhibiting ATP-utilizing enzyme inhibitory activity, and compositions, and uses thereof” (Amphora Discovery Corporation, priority 2004, dated 2008):

target: T1, CHEK1 (Homo sapiens, UniProt O14757); test: HTS ATP-utilizing enzyme assay, off-chip mobility-shift (Caliper HTS 250); format: biochemical; conditions: test compound 10 μM, kinase listed = active (greater than six-sigma from the mean activity of inactive compounds)
T1 sequence (O14757 1-476): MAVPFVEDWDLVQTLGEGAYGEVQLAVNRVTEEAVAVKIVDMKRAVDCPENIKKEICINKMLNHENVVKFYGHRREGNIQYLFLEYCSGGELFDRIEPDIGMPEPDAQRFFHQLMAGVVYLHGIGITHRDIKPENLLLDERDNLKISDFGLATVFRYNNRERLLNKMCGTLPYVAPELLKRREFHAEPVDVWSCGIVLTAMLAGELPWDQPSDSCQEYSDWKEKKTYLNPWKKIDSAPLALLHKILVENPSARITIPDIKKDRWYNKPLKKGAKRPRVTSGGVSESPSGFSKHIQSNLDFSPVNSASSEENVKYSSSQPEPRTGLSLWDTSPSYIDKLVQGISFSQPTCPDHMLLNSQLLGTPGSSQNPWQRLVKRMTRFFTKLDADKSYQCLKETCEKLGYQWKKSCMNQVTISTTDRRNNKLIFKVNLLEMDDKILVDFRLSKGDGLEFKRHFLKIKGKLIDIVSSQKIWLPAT
Procedure, shortened: (§1)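 The ratio of peptide substrate to phosphorylated product, measured by microfluidic mobility shift, gave percent inhibition. Reactions contained enzyme, peptide substrate and compound at 10 μM in HEPES pH 7.5 buffer, ran 2.5 hrs at 20° C. to 22° C., and were quenched with EDTA.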

SMILES	Activity
CN1CCN(c2ccc(Nc3ccnc4ccc(-c5ccc6ccccc6c5)cc34)cc2)CC1 [N-(4-(4-methylpiperazin-1-yl)phenyl)-6-(naphthalen-2-yl)quinolin-4-amine]	CHEK1
c1ccc(-c2ccc3nccc(Nc4ccc(N5CCNCC5)cc4)c3c2)cc1 [6-phenyl-N-(4-(piperazin-1-yl)phenyl)quinolin-4-amine]	CHEK1
COc1ccc(-c2ccc3nccc(Nc4ccc(N5CCNCC5)cc4)c3c2)cc1 [6-(4-methoxyphenyl)-N-(4-(piperazin-1-yl)phenyl)quinolin-4-amine]	CHEK1

target: T2, BMX (Homo sapiens, UniProt P51813); test: as above; format: biochemical; conditions: test compound 10 μM, kinase listed = active (greater than six-sigma from the mean activity of inactive compounds)
T2 sequence (P51813 1-675): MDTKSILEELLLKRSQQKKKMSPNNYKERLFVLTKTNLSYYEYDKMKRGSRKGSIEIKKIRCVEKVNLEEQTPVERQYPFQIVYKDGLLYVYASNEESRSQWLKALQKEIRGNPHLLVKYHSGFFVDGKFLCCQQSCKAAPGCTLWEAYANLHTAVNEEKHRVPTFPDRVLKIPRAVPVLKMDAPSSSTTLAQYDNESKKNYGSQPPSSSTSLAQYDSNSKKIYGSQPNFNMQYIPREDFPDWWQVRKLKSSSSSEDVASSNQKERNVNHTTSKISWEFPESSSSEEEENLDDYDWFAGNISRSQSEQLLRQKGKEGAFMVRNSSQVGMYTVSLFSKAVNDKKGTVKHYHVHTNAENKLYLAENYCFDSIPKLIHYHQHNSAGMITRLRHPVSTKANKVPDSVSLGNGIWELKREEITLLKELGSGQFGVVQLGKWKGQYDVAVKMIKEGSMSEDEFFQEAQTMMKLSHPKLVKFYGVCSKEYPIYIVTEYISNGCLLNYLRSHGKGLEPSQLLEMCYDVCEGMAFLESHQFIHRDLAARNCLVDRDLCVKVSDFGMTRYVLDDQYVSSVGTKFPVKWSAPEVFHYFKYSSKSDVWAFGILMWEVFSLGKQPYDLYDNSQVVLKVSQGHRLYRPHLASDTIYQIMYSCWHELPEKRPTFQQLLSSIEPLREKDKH
Procedure, shortened: as §1

SMILES	Activity
COc1ccc(-c2ccc3nccc(N(C)c4ccc(N5CCN(C)CC5)cc4)c3c2)cc1 [6-(4-methoxyphenyl)-N-methyl-N-(4-(4-methylpiperazin-1-yl)phenyl)quinolin-4-amine]	BMX
CN1CCN(c2ccc(Nc3ccnc4ccc(-c5cccc6ccccc56)cc34)cc2)CC1 [N-(4-(4-methylpiperazin-1-yl)phenyl)-6-(naphthalen-1-yl)quinolin-4-amine]	BMX
CN1CCN(c2ccc(Nc3ccnc4ccc(-c5ccc6ccccc6c5)cc34)cc2)CC1 [N-(4-(4-methylpiperazin-1-yl)phenyl)-6-(naphthalen-2-yl)quinolin-4-amine]	BMX
Cc1ccccc1-c1ccc2nccc(Nc3ccc(N4CCN(C)CC4)cc3)c2c1 [N-(4-(4-methylpiperazin-1-yl)phenyl)-6-o-tolylquinolin-4-amine]	BMX
